Tests used:
[1] = system: Human iNKT cells; test: Cytokine production of human iNKT cells co-cultured with compound-loaded dendritic cells (Luminex); type: cell-based; conditions: for GM-CSF level induced / IFN-γ level induced / IL-10 level induced / IL-2 level induced / IL-4 level induced: dendritic cells loaded with 1 μM compound, cultured with iNKT cells for 3 days, mean±SD; for ratio of IL-4/IFN-γ / ratio of IL-10/IFN-γ: human iNKT cells with compound-loaded dendritic cells, Th2 skewing
Description: The immune response elicited by Compounds 1 and 2a-2i in human NKT cells was evaluated using human dendritic cell (DC).
Method: Human iNKT cells were isolated with anti-TCR Vα24 antibody and cultured for 7 days in the presence of IL-2 (1 μg/mL). The dendritic cells were generated from CD14+ cells, sorted from peripheral blood mononuclear cells (PBMC) by incubating PBMC for 7 days with GM-CSF (50 ng/mL) and IL-4 (50 ng/mL). Dendritic cells were loaded with the following: 1 μM of Compound 1 or 1 μM of Compounds 2a-2i, and cultured with iNKT cells for 3 days. The culture supernatants were collected and analyzed for various cytokines production by Luminex. Data were presented as mean±SD and analyzed by one-way ANOVA.
The ratios of IL-4/IFN-γ and IL-10/IFN-γ were used evaluate if the immune response elicited by Compounds 1 and 2a-2i was skewed toward Th2 mediated response.

[2] = system: mNK1.2 cells; test: Induction of IL-2 in mNK1.2 cells cultured with compound-loaded A20-CD1d cells (ELISA); type: cell-based, murine; conditions: cultured with mNK1.2 cells, supernatant after 72 hours
Description: The immune response elicited by Compounds 1 and 2a-2i was assessed by the induction of IL-2 in mNK1.2 cells. Compound 1 is illustrated by the following formula: […]
Method: A20-CD 1d cells were loaded with Compound 1 (α-GalCer) and Compounds 2a-2i, and cultured with mNK1.2 cells. Supernatants were collected after 72 hours to determine the production of IL-2 by ELISA.

[3] = Solubility noted during characterisation; type: physicochemical; conditions: room temperature; prevented optical rotation measurement
[4] = in words, relative to Compound 1

Row | Compound | IFN-γ level induced [1] | melting point | ratio of IL-4/IFN-γ [1] | ratio of IL-10/IFN-γ [1] | IL-2 level induced [1] | IL-4 level induced [1] | other results
1 | CCCCCCCCCCCCCCCCCCCCCCCCCC(=O)N[C@@H](CO[C@H]1OC(COP(=O)(O)O)[C@H](O)C(O)C1O)[C@H](O)[C@H](O)CCCCCCCCCCCCCC (stereo partly drawn) [Compound 2g, (2S,3S,4R)-1-O-(6-O-phospho-α-D-galactopyranosyl)-D-ribo-2-hexacosanoylamino-1,3,4-oc-tadecantriol, phosphoric acid] | 2704 ± 10.3 pg/mL | 182 °C | – | – | – | – | GM-CSF level induced [1]: 1350 ± 146.2 pg/mL; IL-10 level induced [1]: 2010 ± 325.1 pg/mL
2 | CCCCCCCCCCCCCCCCCCCCCCCCCC(=O)N(C)[C@@H](CO[C@H]1OC(COC)[C@H](O)[C@H](O)C1O)[C@H](O)[C@H](O)CCCCCCCCCCCCCC (stereo partly drawn) [Compound 2a, (2S,3S,4R)-1-O-(6-O-methyl-α-D-galactopyranosyl)-D-ribo-2-N-methyl-hexacosanoylamino-1,3,4-octadecantriol] | – | 64 to 66 °C | 0.032±0.0009 | 0.63±0.07 | – | – | –
3 | CCCCCCCCCCCCCCCCCCCCCCCCCC(=O)N[C@@H](CO[C@H]1O[C@H](COC)[C@H](O)[C@H](O)[C@H]1O)[C@H](O)[C@H](O)CCCCCCCCCCCCCC [Compound 2b, (2S,3S,4R)-1-O-(6-O-methyl-α-D-galactopyranosyl)-D-ribo-2-hexacosanoylamino-1,3,4-octa-decantriol] | 2286 ± 344.3 pg/mL | – | – | – | – | – | IL-2 level induced [2]: 13.3 ± 1.3 ng/mL; levels of cytokines induced compared to Compound 1 [1, 4]: similar
4 | CCCCCCCCCCCCCCCCCCCCCCCCCC(=O)N[C@@H](CO[C@H]1O[C@H](COCCCCCCCCCCCC)[C@H](O)[C@H](O)[C@H]1O)[C@H](O)[C@H](O)CCCCCCCCCCCCCC [Compound 2d, (2S,3S,4R)-1-O-(6-O-dodecyl-α-D-galactopyranosyl)-D-ribo-2-hexacosanoylamino-1,3,4-oct-adecantriol] | – | – | 0.331±0.074 | 0.83±0.1 | 33.8 ± 0.2 pg/mL | 191.5 ± 35.3 pg/mL | –
5 | CCCCCCCCCCCCCCCCCCCCCCCCCC(=O)N[C@@H](CO[C@H]1O[C@H](COCCCCCCCCCCCCC)[C@H](O)[C@H](O)[C@H]1O)[C@H](O)[C@H](O)CCCCCCCCCCCCCC [Compound 2e, (2S,3S,4R)-1-O-(6-O-tridecyl-α-D-galactopyranosyl)-D-ribo-2-hexacosanoylamino-1,3,4-oct-adecantriol] | – | – | 0.246±0.053 | 0.73±0.03 | 32.5 ± 1.7 pg/mL | 140.4 ± 6.1 pg/mL | –
6 | CCCCCCCCCCCCCCCCCCCCCCCCCC(=O)N[C@@H](CO[C@H]1O[C@H](COCCCCCCCCCCCCCCCCCCCC)[C@H](O)[C@H](O)[C@H]1O)[C@H](O)[C@H](O)CCCCCCCCCCCCCC [Compound 2f, (2S,3S,4R)-1-O-(6-O-eicosanyl-α-D-galactopyranosyl)-D-ribo-2-hexacosanoylamino-1,3,4-oc-tadecantriol] | – | – | 0.093±0.041 | 0.69±0.24 | – | – | –
7 | CCCCCCCCCCCCCCCCCCCCCCCC(=O)N[C@@H](COC1OC(CO)C(O)C(O)C1O)[C@H](O)[C@H](O)CCCCC (some centres unmarked) [OCH, reference compound] | – | – | 0.25 | 0.26 | – | – | –
8 | CCCCCCCCCCCCCCCCCCCCCCCCCC(=O)N[C@@H](CO[C@H]1OC(COS(=O)(=O)[O-])[C@H](O)C(O)C1O)[C@H](O)[C@H](O)CCCCCCCCCCCCCC.[Na+] (stereo partly drawn) [Compound 2h, (2S,3S,4R)-1-O-(6-O-sulfo-α-D-galactopyranosyl)-D-ribo-2-hexacosanoylamino-1,3,4-octadecantriol, sodium salt] | 2739 ± 14.52 pg/mL | – | – | – | 60.3 ± 24.4 pg/mL | 113.9 ± 28.4 pg/mL | GM-CSF level induced [1]: 2024 ± 108.4 pg/mL
9 | CCCCCCCCCCCCCCCCCCCCCCCCCC(=O)N[C@@H](CO[C@H]1OC(CN)[C@H](O)C(O)C1O)[C@H](O)[C@H](O)CCCCCCCCCCCCCC (stereo partly drawn) [Compound 2i, (2S,3S,4R)-1-O-(6-amine-α-D-galactopyranosyl)-D-ribo-2-hexacosanoylamino-1,3,4-octadecantriol] | 2687 ± 89.4 pg/mL | 187 to 188 °C | – | – | – | – | IL-10 level induced [1]: 2001 ± 46.8 pg/mL; level of IFN-γ compared to Compound 1 [1, 4]: comparable level; level of IL-4 compared to Compound 1 [1, 4]: lower level; ratio of IL-4/IFN-γ compared to Compound 1 [1, 4]: lower ratio; solubility [3]: poor solubility
10 | CCCCCCCCCCCCCCCCCCCCCCCCCC(=O)N[C@@H](CO[C@H]1O[C@H](COCCCCCC)[C@H](O)[C@H](O)[C@H]1O)[C@H](O)[C@H](O)CCCCCCCCCCCCCC [Compound 2c, (2S,3S,4R)-1-O-(6-O-hexyl-α-D-galactopyranosyl)-D-ribo-2-hexacosanoylamino-1,3,4-octa-decantriol] | – | – | 0.044±0.011 | 0.91±0.26 | – | – | –
